Laboratory results taken from ChEMBL document CHEMBL1136539, “N-ferrocenylmethyl, N'-methyl-2-substituted benzimidazolium iodide salts with in vitro activity against the Leishmania infantum parasite strain L1” (Bioorg Med Chem Lett, 2003).

System: Leishmania infantum
Assay: Inhibitory activity against Leishmania infantum parasite L1 strain
Type: functional, organism-based

IC50: < 6.25 µM
SMILES: C[C@@H]1[C@H](O)[C@@H](C)/C=C/C=C/C=C/C=C/C=C/C=C/C=C/[C@H](O[C@@H]2O[C@H](C)[C@@H](O)[C@H](N)[C@@H]2O)C[C@@H]2O[C@](O)(C[C@@H](O)C[C@@H](O)[C@H](O)CC[C@@H](O)C[C@@H](O)CC(=O)O[C@H]1C)C[C@H](O)[C@H]2C(=O)O [AMPHOTERICIN B]
